The target of data set [1] is T1, R86A mutant of the Akt PH domain (Homo sapiens, UniProt P31749, R86A).
T1 construct: Human Akt PH domain a.a; 1-123; His6 (N); made in house; host or cells: E. coli BL21(DE3)
Description: NMR HSQC, R86A mutant of the PH domain. The format is binding.

In the next data set the target is T2, PLC-δ PH domain (Homo sapiens, UniProt P51178).
T2 construct: 100 nM PLC-δ PH domain
T2 sequence (P51178 21-130 limits assumed): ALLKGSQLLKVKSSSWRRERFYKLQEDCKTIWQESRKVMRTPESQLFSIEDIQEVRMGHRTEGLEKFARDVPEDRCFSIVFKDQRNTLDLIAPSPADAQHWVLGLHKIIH
Description: PH domain translocation assay, GFP-fused PLC-δ PH domain. The format is cell-based. The protocol: Cells were transfected with the corresponding GFP-fusion vectors, serum starved overnight, and incubated with 100 μM PITs or PIT-1is for 2 hr, followed by stimulation with 100 ng/ml PDGF or 250 ng/ml PMA for 5 min. The translocation was analyzed using fluorescent microscope and was quantitated by counting the number of cells with translocated PH domains in five random fields.
In contrast, no inhibitory effect was observed on the cellular localization of PLC-δ PH domain, which is specific for PIP2.

In a further data set the test system is U87MG cells. Description: long-term colony formation by U87MG cells. It is filed as cell-based, human.
The subject of data set [2] is U87MG cells (R130M PTEN vs wt PTEN). Put plainly: Sytox cell death assay, U87MG expressing wild-type or R130M inactive PTEN. The format is cell-based, human. The conditions noted are these: 25, 50, 100 μM, 48 hr. The protocol: After treatment with 25, 50, or 100 μM PIT-1 for 48 hr, cell death was analyzed using Sytox cell death assay.
Based on the critical role of PIP3-dependent Akt signaling in the regulation of cell survival, the effect of PIT-1 on the cancer cell viability was tested. Cancer cells were seeded into 96-well plates (white plates for ATP assay; black plates for fluorescent assay; clear plates for MTS assay) at the density of 5-10×10^3 cells per well in 100 μl of the appropriate media. Compounds were added at a series of concentrations and incubated for different times. For the ATP assay, a luminescence-based commercial kit (CellTiter-Glo, Promega, Madison, Wis.) was used. Thirty microliters of cell lysis/ATP detection reagent was added to each well, mixed for 10 min at room temperature, and the luminescence was measured using a Wallac Victor 3 plate reader (Perkin-Elmer, Wellesley, Mass.). […] Twenty microliters of the combined MTS/PMS solution was added into each well, incubated for 4 hr at 37° C., and the absorbance at 490 nm was measured using a Wallac Victor 3 plate reader. For the Sytox cell death assay, measuring loss of plasma membrane integrity, cells were incubated with 1 μM Sytox Green reagent (Molecular Probes, Eugene, Oreg.) for 30 min at 37° C. and the fluorescence intensity was measured using Wallac Victor 3 plate reader with excitation at 485 nm and emission at 545 nm. […]

The test system of the next data set is caspase-3. Description: Western blot of caspase-3 cleavage and PARP processing. It is filed as cell-based. An excerpt:
Since PI3K/PIP3/Akt signaling plays a critical role in the inhibition of apoptosis (Datta S R et al. (1999) Genes Dev 13:2905-27), the possibility that PITs induce apoptosis was examined. […] Proapoptotic Bcl-2 family members Bax and Bak are important mediators of apoptosis. Wei M C et al. (2001) Science 292:727-30. […] Non-apoptotic mechanisms of cell death may also play some additional, albeit less important, role in PIT-induced killing, as some cell death was still observed in Bax/Bak-deficient cells and in the presence of zVAD.fmk.

Data set [3] relates to AMP-activated protein kinase (AMPK). Put plainly: phosphorylation of AMPK and ACC (metabolic stress). The format is cell-based. The text has this:
(§1) Changes in cell metabolism have emerged in recent years as an important component of PI3K/PIP3/Akt signaling, contributing to the regulation of cell viability and transformation by the PI3K/Akt pathway. Datta S R et al. (1999) Genes Dev 13:2905-27; Elstrom R L et al. (2004) Cancer Res 64:3892-9. Therefore, the possibility that PIT-1 may cause dysregulation of energy homeostasis and induction of the metabolic stress in cancer cells, which may contribute to the PIT-induced cell death, was investigated. […] Hardie D G (2007) Nat Rev Mol Cell Biol 8:774-85. […] Mathew R et al. (2007) Nat Rev Cancer 7:961-7. […] Takeuchi H et al. (2005) Cancer Res 65:3336-46.

For a further data set, the system named is LC3-II. Put plainly: autophagic marker LC3-II in U87MG cells. It is filed as cell-based, human.
Source text: as §1

In a further data set the test system is SUM-159 cells. Put plainly: acquisition of the invasive phenotype by SUM-159 cells. It is filed as cell-based, human. The conditions noted are these: reversible.
The test system of data set [4] is differentiated HL-60 cells. Description: fMLP-stimulated HL-60 cell polarization. The conditions noted are these: 100 μM, 2 hr. The format is cell-based. The protocol:
In another set of experiments, the ability of PITs to inhibit fMLP-stimulated HL-60 cell polarization was examined. Differentiated HL-60 cells were treated with PIT-1, PIT-2, PIT-1i-1, or PIT-1i-2, each at 100 μM for 2 hr, followed by stimulation with 100 nM fMLP for 3 min. Actin was stained and analyzed using fluorescent microscopy. The number of the polarized cells was counted in five random fields.

Data set [5] can be described thus: stability in dimethylsulfoxide. It is filed as physicochemical.

The values that follow come from US20120136033A1, “Small Molecule Antagonists of Phosphatidylinositol-3,4,5-Triphosphate (PIP3) and Uses Thereof” (President and Fellows of Harvard College, priority 2009, published 2012).

SMILES strings stand for the structures.

T1 sequence (P31749 1-123 R86A): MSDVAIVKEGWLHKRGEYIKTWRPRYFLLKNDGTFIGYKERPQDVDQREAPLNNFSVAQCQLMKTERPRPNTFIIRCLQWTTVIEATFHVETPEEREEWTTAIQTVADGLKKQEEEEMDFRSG

`O=C(NC(=S)Nc1cc([N+](=O)[O-])cc(Cl)c1O)c1ccccc1` [PIT-1]: the “effect on HSQC of R86A mutant PH domain” value in data set [1] is on record as “had no effect”. Further, the “effect on PLC-δ PH domain localization / PIP2/PH domain binding in cells” value on PLC-δ PH domain is reported as “does not disrupt”. Further, the “long-term colony formation by U87MG cells” value with U87MG cells is on record as “suppressed long-term colony formation”. The “toxicity in U87MG cells lacking PTEN activity compared to wt PTEN-expressing cells” value in data set [2] is “more pronounced”. In addition, in the data set with caspase-3, the “cleavage/activation of caspase-3 and processing of PARP” value is “induced the cleavage/activation”. Further, in data set [3], the “phosphorylation of AMPK” value is given as “significant increase in the phosphorylation” and the “phosphorylation of acetyl-CoA carboxylase (ACC)” value is reported as “Increased phosphorylation”. For the same compound, the “expression of autophagic marker LC3-II” value in the data set on LC3-II is on record as “prominently increased”. The “acquisition of the invasive phenotype by SUM-159 cells” value in the data set on SUM-159 cells was “blocked acquisition of the invasive phenotype”. Besides, in data set [4], the “fMLP-stimulated polarization of differentiated HL-60 neutrophils” value is reported as “efficient inhibition”.

`O=C1NC(=S)S/C1=C\c1cc(O)c([N+](=O)[O-])cc1Cc1ccccc1` [PIT-2]: the “stability in dimethylsulfoxide (DMSO)” value in [5] was “limited stability”.
